Data as given in ChEMBL document CHEMBL4706623, “GPR52 Antagonist Reduces Huntingtin Levels and Ameliorates Huntington's Disease-Related Phenotypes” (J Med Chem, 2021).
The source made the active and inactive calls. The calls are words filed in the database; no cut-off is given here.

What was measured:
[1] = molecular target: G-protein coupled receptor 52 (Mus musculus) (UniProt P0C5J4); experiment: In vivo antagonist activity at GPR52 in HdhQ140 knock-in mouse model assessed as reduction in mHTT aggregate levels in striatum in presence of 4C9 antibody labelled with D2 fluorophore at 5 mg/kg, iv QD for 4 weeks by TR-FRET analysis; type: functional, organism-based
[2] = molecular target: D(2) dopamine receptor (Homo sapiens) (UniProt P14416); experiment: Antagonist activity at dopamine D2 receptor (unknown origin) expressed in HEK293 cells assessed as inhibition of dopamine-induced cAMP accumulation; type: functional, cell-based
[3] = molecular target: G-protein coupled receptor 52 (Mus musculus) (UniProt P0C5J4); experiment: In vivo antagonist activity at GPR52 in HdhQ140 knock-in mouse model assessed as reduction in mHTT aggregate levels in cortex in presence of 4C9 antibody labelled with terbium at 5 mg/kg, iv QD for 4 weeks by TR-FRET analysis; type: functional, organism-based
[4] = molecular target: G-protein coupled receptor 52 (Mus musculus) (UniProt P0C5J4); experiment: In vivo antagonist activity at GPR52 in HdhQ140 knock-in mouse model assessed as reduction in mHTT aggregate levels in cortex in presence of 4C9 antibody labelled with D2 fluorophore at 5 mg/kg, iv QD for 4 weeks by TR-FRET analysis; type: functional, organism-based
[5] = molecular target: G-protein coupled receptor 52 (Mus musculus) (UniProt P0C5J4); experiment: Antagonist activity at GPR52 in mouse STHdhQ7/111 cells assessed as decrease in mHTT levels at 1 to 10 uM incubated for 48 hrs in presence of 2B7-terbium and 2166-D2 antibodies by western blot analysis; type: cell-based; details: filed as antagonist, dose 1-10 µM
[6] = molecular target: G-protein coupled receptor 52 (Mus musculus) (UniProt P0C5J4); experiment: Antagonist activity at GPR52 in neurons from HdhQ7/Q140 mouse assessed as decrease in mHTT levels at 0.3 to 3 uM incubated for 48 hrs in presence of 2B7-terbium and 2166-D2 antibodies by western blot analysis; details: Neuron, filed as antagonist, dose 0.3-3 µM
[7] = Cytotoxicity against mouse STHdhQ7/111 cells assessed as cell viability at < 10 uM incubated for 48 hrs by cell titer glo luminescence based assay; details: sthdhq7/111, 48 h
[8] = molecular target: C-C chemokine receptor type 5 (Homo sapiens) (UniProt P51681); experiment: Antagonist activity at CCR5 (unknown origin) expressed in HEK293 cells assessed as inhibition of […] cAMP accumulation; type: functional, cell-based
[9] = molecular target: Glucagon receptor (Homo sapiens) (UniProt P47871); experiment: Antagonist activity at GCGR (unknown origin) expressed in HEK293 cells assessed as inhibition of glucagon-induced cAMP accumulation; type: functional, cell-based
STHdhQ7/111 [10] = experiment: Decrease in mHTT level in GPR52 knockdown mouse STHdhQ7/111 cells with at 1 to 10 uM incubated for 48 hrs in presence of 2B7-terbium and 2166-D2 antibodies by TR-FRET analysis; type: functional, cell-based; details: dose 1-10 µM
[11] = molecular target: G-protein coupled receptor 52 (Mus musculus) (UniProt P0C5J4); experiment: In vivo antagonist activity at GPR52 in HdhQ140 knock-in mouse model assessed as reduction in mHTT levels in striatum at 0.5 mM, icv QD for 3 weeks by TR-FRET analysis; type: functional
[12] = Neurotoxicity in wild type mouse assessed as effect on motor deficiency by measuring crossing time at 5 mg/kg, iv QD for 4 weeks by balance beam test; type: toxicity, organism-based; details: in vivo, 672 h
[13] = molecular target: G-protein coupled receptor 52 (Mus musculus) (UniProt P0C5J4); experiment: In vivo antagonist activity at GPR52 in HdhQ140 knock-in mouse model assessed as reduction in mHTT aggregate levels in striatum in presence of 4C9 antibody labelled with terbium at 5 mg/kg, iv QD for 4 weeks by TR-FRET analysis; type: functional, organism-based
Mus musculus [14] = experiment: Neuroprotective activity in HdhQ140 knock-in mouse model assessed as rescue of mHTT-induced neuronal survival loss at 5 mg/kg, iv QD for 4 weeks by […] based immunostaining based analysis; type: functional, organism-based
Mus musculus [15] = experiment: Neuroprotective activity in HdhQ140 knock-in mouse model assessed as decrease in staining intensity of microglia in striatum at 0.5 mM, icv QD for 3 weeks by Iba1staining based immunostaining analysis; type: functional, organism-based
[16] = molecular target: G-protein coupled receptor 52 (Mus musculus) (UniProt P0C5J4); experiment: In vivo antagonist activity at GPR52 in wild type mouse model assessed as reduction in wild type HTT levels at 0.5 mM, icv QD for 3 weeks by TR-FRET analysis; type: functional
STHdhQ7/111 [17] = experiment: Decrease in wild type HTT level in GPR52 knockdown mouse STHdhQ7/111 cells with at 1 to 10 uM incubated for 48 hrs in presence of 2B7-terbium and 2166-D2 antibodies by TR-FRET analysis; type: functional, cell-based; details: dose 1-10 µM
Neuron = experiment: Neuroprotective activity in neurons from HdhQ7/Q140 mouse assessed as rescue from mHTT-induced neuronal loss at 3 uM incubated for 48 hrs maintained in absence of growth factor N2 and B27 under starvation condition by immunostaining based analysis; type: functional, tissue-based
[18] = molecular target: G-protein coupled receptor 52 (Mus musculus) (UniProt P0C5J4); experiment: Antagonist activity at GPR52 in neurons from HdhQ7/Q140 mouse assessed as decrease in wild type HTT levels at 0.1 to 3 uM incubated for 48 hrs in presence of 2B7-terbium and 2166-D2 antibodies by TR-FRET analysis; type: tissue-based; details: Neuron, filed as antagonist, dose 0.1-3 µM
[19] = molecular target: G-protein coupled receptor 52 (Mus musculus) (UniProt P0C5J4); experiment: In vivo antagonist activity at GPR52 in HdhQ140 knock-in mouse model assessed as reduction in soluble mHTT levels in striatum at 5 mg/kg, iv QD for 4 weeks by TR-FRET analysis; type: functional, organism-based
[20] = molecular target: G-protein coupled receptor 52 (Mus musculus) (UniProt P0C5J4); experiment: Antagonist activity at GPR52 in neurons from HdhQ7/Q140 mouse assessed as decrease in mHTT levels at 0.1 to 3 uM incubated for 48 hrs in presence of 2B7-terbium and 2166-D2 antibodies by TR-FRET analysis; type: tissue-based; details: Neuron, filed as antagonist, dose 0.1-3 µM

Chain of G-protein coupled receptor 52 (Mus musculus) (P0C5J4 whole entry): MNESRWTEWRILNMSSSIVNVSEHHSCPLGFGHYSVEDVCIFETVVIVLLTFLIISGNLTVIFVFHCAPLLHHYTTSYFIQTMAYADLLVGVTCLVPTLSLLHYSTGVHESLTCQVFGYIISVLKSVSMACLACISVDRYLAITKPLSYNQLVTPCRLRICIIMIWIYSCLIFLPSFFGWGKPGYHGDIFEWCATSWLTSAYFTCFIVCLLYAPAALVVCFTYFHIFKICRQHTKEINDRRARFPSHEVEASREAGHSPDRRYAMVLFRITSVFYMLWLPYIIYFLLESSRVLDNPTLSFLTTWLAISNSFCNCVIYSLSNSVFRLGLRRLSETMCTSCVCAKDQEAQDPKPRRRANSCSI
Chain of D(2) dopamine receptor (Homo sapiens) (P14416 whole entry): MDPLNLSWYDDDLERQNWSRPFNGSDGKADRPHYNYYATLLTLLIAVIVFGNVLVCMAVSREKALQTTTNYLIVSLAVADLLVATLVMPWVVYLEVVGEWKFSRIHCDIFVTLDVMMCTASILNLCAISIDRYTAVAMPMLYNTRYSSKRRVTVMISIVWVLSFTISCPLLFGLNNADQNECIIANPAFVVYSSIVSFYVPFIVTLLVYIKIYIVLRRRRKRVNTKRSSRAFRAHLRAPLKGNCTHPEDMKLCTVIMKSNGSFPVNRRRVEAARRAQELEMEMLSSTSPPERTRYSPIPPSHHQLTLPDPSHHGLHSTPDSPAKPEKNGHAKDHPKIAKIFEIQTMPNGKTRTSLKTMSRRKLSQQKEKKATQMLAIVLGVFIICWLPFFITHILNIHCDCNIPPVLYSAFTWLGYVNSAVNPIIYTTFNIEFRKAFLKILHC
Chain of Glucagon receptor (Homo sapiens) (P47871 whole entry): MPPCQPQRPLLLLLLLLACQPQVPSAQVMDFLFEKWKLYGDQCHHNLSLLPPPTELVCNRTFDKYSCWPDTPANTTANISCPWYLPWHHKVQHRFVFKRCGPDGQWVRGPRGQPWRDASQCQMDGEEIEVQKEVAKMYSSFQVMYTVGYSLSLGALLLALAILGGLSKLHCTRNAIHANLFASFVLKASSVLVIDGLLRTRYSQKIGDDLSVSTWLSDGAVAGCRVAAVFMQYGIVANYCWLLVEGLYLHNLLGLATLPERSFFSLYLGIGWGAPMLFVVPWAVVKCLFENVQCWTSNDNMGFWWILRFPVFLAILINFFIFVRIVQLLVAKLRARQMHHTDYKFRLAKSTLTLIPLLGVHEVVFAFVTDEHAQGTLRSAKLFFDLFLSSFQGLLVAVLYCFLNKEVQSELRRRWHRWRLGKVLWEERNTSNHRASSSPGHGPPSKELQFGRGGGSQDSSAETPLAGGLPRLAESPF
Chain of C-C chemokine receptor type 5 (Homo sapiens) (P51681 whole entry, looked up): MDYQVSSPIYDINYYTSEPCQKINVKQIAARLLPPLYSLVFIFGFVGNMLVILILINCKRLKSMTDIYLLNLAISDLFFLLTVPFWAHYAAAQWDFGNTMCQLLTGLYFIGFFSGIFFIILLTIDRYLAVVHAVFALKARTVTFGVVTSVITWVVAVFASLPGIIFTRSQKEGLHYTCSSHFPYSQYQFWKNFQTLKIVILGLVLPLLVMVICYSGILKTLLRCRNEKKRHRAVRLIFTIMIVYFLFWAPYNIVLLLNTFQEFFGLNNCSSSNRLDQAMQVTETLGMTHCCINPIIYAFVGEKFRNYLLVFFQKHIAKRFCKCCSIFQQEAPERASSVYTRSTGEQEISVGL

Activity [1]: Active
Activity [2]: inactive
Activity [3]: inactive
Activity [4]: inactive
Activity [5]: Active
Activity [6]: Active
Activity [8]: inactive
Activity [9]: inactive
Activity [11]: Active
Activity [13]: Active
Activity [16]: inactive
Activity [18]: Active
Activity [19]: Active
Activity [20]: Active
SMILES: O=C(/C=C/CCc1ccccc1)c1ccco1
Activity [7]: Non-Toxic
Activity (STHdhQ7/111 [10]): inactive
Activity [12]: Non-Toxic
Activity (Mus musculus [14]): Active
Activity (Mus musculus [15]): Active
Activity (STHdhQ7/111 [17]): inactive
Activity (Neuron): Active
